Read-outs that look alike come from different tables or passages of the source.
Legend:
[1] = tested on: hepatocyte-stromal cell cocultures comprising primate primary hepatocytes
Protocol: (§1) Cell viability was analyzed using a CellTiter-Blue (Promega) assay, n=4.
(§2) These are concentration dependent toxicity curves generated after 6 days of repeat compound exposure in the 4 different species. Each compound was dosed every 2 days starting on day 0. On the 6th day the Promega Celltiter blue assay was used to measure the conversion of resazurin to the fluorescent resorufin.
(§3) Cryopreserved human hepatocytes were obtained from Thermo Fisher (formerly Life Technologies Corporation). Cryopreserved non-human primate (cynomolgus monkey) hepatocytes were obtained from Thermo Fisher (formerly Life Technologies Corporation). Cryopreserved dog hepatocytes were obtained from IVT Bioreclamation. Cryopreserved rat hepatocytes were obtained from Thermo Fisher (formerly Life Technologies Corporation). The cryopreserved hepatocytes were removed from liquid nitrogen and thawed. After thawing, cells were re-suspended in medium and cell number and cell viability was determined using trypan blue exclusion. Stromal cells were passed in a CO2 incubator until used for experimental plating. On plating day cells were detached from the plate, washed, and re-suspended in medium. Cell number and viability were determined using trypan blue exclusion.
(§4) The stromal cells were growth arrested prior to seeding.
(§5) The graphs in FIGS. 11-13 present concentration dependent toxicity curves generated after 6 days of repeat compound exposure in human, dog, primate, and rat. Each compound was dosed every two days for treatment periods of two days, four days, and six days across a full range of concentrations. On the sixth day a Promega Celltiter blue assay was used to measure mitochondrial metabolic activity. That data was then used to generate a TC50 value. […] In FIG. 11 cyclophosphamide was administered every two days for treatment periods of two days, four days, and six days across a full range of concentrations.

[2] = tested on: hepatocyte-stromal cell cocultures comprising dog primary hepatocytes
Protocol: as §1, §2, §3, §4, §5

[3] = tested on: hepatocyte-stromal cell cocultures comprising rat primary hepatocytes
Protocol: as §1, §2, §3, §4, §5

[4] = tested on: hepatocyte-stromal cell cocultures comprising human primary hepatocytes
Protocol: as §1, §2, §3, §4, §5

[5] = known profile of reference compound; cited from earlier work

## O=P1(N(CCCl)CCCl)NCCCO1 (stereo not shown) [Cyclophosphamide]
[1]; Monkey, 6 days of repeat exposure, dosed every 2 days, Celltiter blue
  LC50 (TC50): 1,904 μM
[1]; primate, treatment periods of two, four and six days, CellTiter-Blue, n=4
  effect of multiple dosing on cytotoxicity (cell viability): extending the duration of dosing increases the cyclophosphamide cytotoxicity
[2]; Dog, 6 days of repeat exposure, dosed every 2 days, Celltiter blue
  LC50 (TC50): 7,541 μM
[2]; dog, treatment periods of two, four and six days, CellTiter-Blue, n=4
  effect of multiple dosing on cytotoxicity (cell viability): extending the duration of dosing increases the cyclophosphamide cytotoxicity
[3]; Rat, 6 days of repeat exposure, dosed every 2 days, Celltiter blue
  LC50 (TC50): 1,506 μM
[3]; rat, treatment periods of two, four and six days, CellTiter-Blue, n=4
  effect of multiple dosing on cytotoxicity (cell viability): extending the duration of dosing increases the cyclophosphamide cytotoxicity
[4]; Human, 6 days of repeat exposure, dosed every 2 days, Celltiter blue
  LC50 (TC50): 5,523 μM
[4]; human, treatment periods of two, four and six days, CellTiter-Blue, n=4
  effect of multiple dosing on cytotoxicity (cell viability): extending the duration of dosing increases the cyclophosphamide cytotoxicity

## Cc1c(C)c2c(c(C)c1O)CCC(C)(COc1ccc(CC3SC(=O)NC3=O)cc1)O2 (stereo not shown) [Troglitazone]
[1]; cynomolgus monkey, 6 days
  LC50 (TC50): 207 µM
[2]; dog, 6 days
  LC50 (TC50): 267 µM
[3]; rat, 6 days
  LC50 (TC50): 317 µM
[4]; human, 6 days
  LC50 (TC50): 308 µM

## COc1ccccc1Oc1c(NS(=O)(=O)c2ccc(C(C)(C)C)cc2)nc(-c2ncccn2)nc1OCCO [bosentan]
[5]
  known in vivo hepatotoxicity: strong in vivo hepatotoxicity
Human hepatocytes
  LC50 (TC50) at 24 hours: 757 µM

## CN(C)CCCN1c2ccccc2Sc2ccc(Cl)cc21 [chlorpromazine]
Human hepatocytes
  LC50 (TC50) at 24 hours: 21 µM

## CC(C)NCC(O)COc1cccc2ccccc12 (stereo not shown) [propranolol]
[5]
  known in vivo hepatotoxicity: lack of hepatotoxicity

From patent US20180113119A1, “METHODS FOR CHARACTERIZING TIME-BASED HEPATOTOXICITY” (HUREL CORPORATION, priority 2015, published 2018)
